BindingDB's records for doi:10.7270/Q2251GJ9 (The Scripps Research Institute Molecular Screening Center, 2007)

Target: Sphingosine 1-phosphate receptor 1 (Homo sapiens, UniProt P21453)
Assay: S1P1 receptor agonists, dose response, cell-based, agonist mode, 60K MLSMR set (AID 468)
[1] = inactive by the depositor's call

Sphingosine 1-phosphate receptor 1, sequence (P21453 whole entry): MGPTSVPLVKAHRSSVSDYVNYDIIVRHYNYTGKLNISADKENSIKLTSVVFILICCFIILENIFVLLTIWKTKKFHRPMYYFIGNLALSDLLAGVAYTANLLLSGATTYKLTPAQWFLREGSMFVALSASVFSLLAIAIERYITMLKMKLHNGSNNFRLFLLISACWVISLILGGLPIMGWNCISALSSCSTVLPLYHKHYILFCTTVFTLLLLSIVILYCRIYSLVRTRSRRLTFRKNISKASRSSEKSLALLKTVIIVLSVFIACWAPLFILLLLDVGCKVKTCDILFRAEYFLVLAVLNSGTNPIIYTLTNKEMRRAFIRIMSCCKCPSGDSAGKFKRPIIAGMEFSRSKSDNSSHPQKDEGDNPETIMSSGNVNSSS

Row | SMILES | EC50 [µM] | EC50 [1] [µM]
1 | Cc1cc(C(=O)CSc2nnc(-c3cccnc3)n2-c2ccccc2F)c(C)n1C [SMR000064090] | 0.817 | –
2 | Cc1ccccc1OCCCCc1c(C)n[nH]c1C [SMR000103095] | 6.74 | –
3 | COc1ccccc1OCCCCCc1c(C)n[nH]c1C [SMR000103101] | 9.84 | –
4 | CC1(C)CC(=O)C(=CNc2ccc3[nH]ncc3c2)C(=O)C1 [SMR000111453] | 5.07 | –
5 | CN=C(NC#N)SCC(=O)c1ccc(Cl)cc1Cl [[2-(2,4-dichlorophenyl)-2-oxidanylidene-ethyl] N-cyano-N'-methyl-carbamimidothioate] | 4.55 | –
6 | CC(C)(C)OC(=O)N[C@@H](Cc1ccccc1)c1nnc(S(=O)(=O)Cc2cccc(F)c2)o1 [tert-butyl N-[(1S)-1-[5-[(3-fluorophenyl)methylsulfonyl]-1,3,4-oxadiazol-2-yl]-2-phenylethyl]carbamate] | 8.51 | –

Second part, the molecule after the results:

Row | EC50 [µM] | EC50 [1] [µM] | SMILES
7 | 6 | – | CCc1cc(-c2n[nH]cc2-c2ccc3c(c2)OCO3)c(O)cc1O [SMR000060132]
8 | 6.39 | – | Clc1ccc(-n2nnnc2Sc2ncnc3sccc23)cc1 [SMR000066808]
9 | – | 10.7 | C=CCOC(=O)c1[nH]c2c(c1C)C(=O)CC(c1cc(OC)c(OC)c(OC)c1)C2 (configuration not stated) [SMR000093465]
10 | – | 11.5 | Cc1cccc(OCCCCc2c(C)n[nH]c2C)c1 [SMR000103102]
11 | 4.96 | – | Cc1cccc(OCCCCc2c(C)n[nH]c2C)c1C [SMR000103133]
12 | > 95 | – | CCn1c(-c2cccc(Cl)c2)n[nH]c1=S [SMR000104244]
